Measurements published in patent US20250136607A1 (REGOR PHARMACEUTICALS, INC., priority 2021, published 2025).
Like-named read-outs stand apart in the source and are kept apart here.

Columns and labels:
[1] = molecular target: Protein arginine deiminase 4 (PAD4) (Homo sapiens, UniProt Q9UM07); experiment: PAD4 ammonia release assay; format: biochemical
How it was run: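 PAD4 (20 nM, 2× working solution) was preincubated with compound for 15 min at RT in 100 mM HEPES pH 8.0, 2 mM CaCl2, 50 mM NaCl, 0.1 mM TCEP, BSA at 1.25% DMSO. BAEE (600 μM, 2× mix) reacted 60 min, then OPA/DTT/EDTA detection for 120 min. IC50 came from a 4-parameter fit, normalized to 50 μM reference (100%) and DMSO (0%).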

[2] = test system: Citrullinated Histone H3 in dHL-60 cells (differentiated HL-60); experiment: dHL-60 Cit-H3 ELISA assay; format: cell-based, human; details: Homo sapiens, read-out: Average IC50 Abs
How it was run: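 HL-60 cells differentiated 72 h with DMF, plated at 1×10^5/well, pretreated 30 min with compound (8-point 3-fold series, 0.2% DMSO), then stimulated 3 h at 37 °C with 25 μM A23187 plus S7 nuclease. Supernatant citrullinated H3 quantified by HRP ELISA at 450 nm; IC50 by four-parameter fit.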

[3] = PAD4 ammonia release assay, BAEE substrate, 60 min at RT, read-out: Average IC50 Abs
[4] = HL-60, 3 h, stimulation with 25 μM A23187 for 3 h
[5] = HL-60, stimulation with 25 μM A23187 for 3 h

Protein arginine deiminase 4 (PAD4), sequence (Q9UM07 whole entry): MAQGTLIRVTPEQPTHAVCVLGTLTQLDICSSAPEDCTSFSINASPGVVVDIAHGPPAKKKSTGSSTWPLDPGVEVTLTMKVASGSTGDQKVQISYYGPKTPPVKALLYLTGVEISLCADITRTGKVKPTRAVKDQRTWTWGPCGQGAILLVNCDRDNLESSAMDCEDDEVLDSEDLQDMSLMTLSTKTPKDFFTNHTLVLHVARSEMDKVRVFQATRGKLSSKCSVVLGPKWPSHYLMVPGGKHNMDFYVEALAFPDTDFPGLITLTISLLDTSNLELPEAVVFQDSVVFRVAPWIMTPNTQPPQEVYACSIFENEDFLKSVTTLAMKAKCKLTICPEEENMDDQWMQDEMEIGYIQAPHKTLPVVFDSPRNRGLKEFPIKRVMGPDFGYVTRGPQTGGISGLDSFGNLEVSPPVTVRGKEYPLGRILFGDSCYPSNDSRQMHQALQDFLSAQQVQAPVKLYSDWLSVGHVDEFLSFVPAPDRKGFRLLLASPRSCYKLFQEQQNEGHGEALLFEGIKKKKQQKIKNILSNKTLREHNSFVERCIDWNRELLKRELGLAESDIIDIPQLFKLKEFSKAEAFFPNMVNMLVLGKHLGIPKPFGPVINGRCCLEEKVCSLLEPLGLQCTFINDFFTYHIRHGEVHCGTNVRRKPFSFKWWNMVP

COc1cc(C(=O)N2C[C@H](N)C[C@@H](F)C2)cc2nc(-c3cc4cccc5c4n3CCN5CCCO)n(Cc3cccs3)c12 [Example 37, ((3R,5R)-3-amino-5-fluoropiperidin-1-yl)(2-(1-(3-hydroxypropyl)-2,3-dihydro-1H-pyrrolo[1,2,3-de]quinoxalin-5-yl)-7-methoxy-1-(thiophen-2-ylmethyl)-1H-benzo[d]imidazol-5-yl)methanone]
IC50 [1, 3]: ≤ 100 nM | IC50 [2, 4]: 100 to 500 nM

Cn1c(-c2cc3ccc4cc[nH]c4c3n2CC2CC2)nc2cc(C(=O)N3C[C@H]4CC[C@@H]3[C@@H]4N)cc(F)c21 [Example 148, ((1R,4R,7R)-7-amino-2-azabicyclo[2.2.1]heptan-2-yl)(2-(1-(cyclopropylmethyl)-1,8-dihydropyrrolo[3,2-g]indol-2-yl)-7-fluoro-1-methyl-1H-benzo[d]imidazol-5-yl)methanone]
IC50 [1, 3]: ≤ 100 nM | IC50 [2, 4]: ≤ 100 nM

CCn1cc(Cn2c(-c3cc4cccc5c4n3CCN5)nc3cc(C(=O)N4C[C@H](N)C[C@@H](F)C4)cc(F)c32)cn1 [Example 40, ((3R,5R)-3-amino-5-fluoropiperidin-1-yl)(2-(2,3-dihydro-1H-pyrrolo[1,2,3-de]quinoxalin-5-yl)-1-((1-ethyl-1H-pyrazol-4-yl)methyl)-7-fluoro-1H-benzo[d]imidazol-5-yl)methanone]
IC50 [1, 3]: 100 to 500 nM | IC50 [2, 4]: 500 to 5000 nM

C#CCn1c(-c2cc3cccc4c3n2C(CC)CN4CCCO)nc2cc(C(=O)N3C[C@H]4CC[C@@H]3[C@@H]4N)cc(F)c21 (stereo partly drawn) [Example 91, ((1R,4R,7R)-7-amino-2-azabicyclo[2.2.1]heptan-2-yl)(2-(3-ethyl-1-(3-hydroxypropyl)-2,3-dihydro-1H-pyrrolo[1,2,3-de]quinoxalin-5-yl)-7-fluoro-1-(prop-2-yn-1-yl)-1H-benzo[d]imidazol-5-yl)methanone]
IC50 [1, 3]: 100 to 500 nM | IC50 [2, 4]: 100 to 500 nM

Cn1c(-c2cc3ccc4c(c3n2CC2CC2)NCC4)nc2cc(C(=O)N3C[C@H]4CC[C@@H]3[C@@H]4N)cc(F)c21 [Example 147, ((1R,4R,7R)-7-amino-2-azabicyclo[2.2.1]heptan-2-yl)(2-(1-(cyclopropylmethyl)-1,6,7,8-tetrahydropyrrolo[3,2-g]indol-2-yl)-7-fluoro-1-methyl-1H-benzo[d]imidazol-5-yl)methanone]
IC50 [1, 3]: ≤ 100 nM | IC50 [2, 4]: 100 to 500 nM

CC(C)C1CN(CCCO)c2cccc3cc(-c4nc5cc(C(=O)N6C[C@H]7CC[C@@H]6[C@@H]7N)cc(F)c5n4C)n1c23 (stereo partly drawn) [Example 103, ((1R,4R,7R)-7-amino-2-azabicyclo[2.2.1]heptan-2-yl)(7-fluoro-2-(1-(3-hydroxypropyl)-3-isopropyl-2,3-dihydro-1H-pyrrolo[1,2,3-de]quinoxalin-5-yl)-1-methyl-1H-benzo[d]imidazol-5-yl)methanone]
IC50 [1, 3]: 100 to 500 nM | IC50 [2, 5]: ≤ 100 nM

COc1cc(C(=O)N2CCC[C@@H](N)C2)cc2nc(-c3cc4cccc5c4n3CCN5)n(C)c12 [Example 2, (R)-(3-aminopiperidin-1-yl)(2-(2,3-dihydro-1H-pyrrolo[1,2,3-de]quinoxalin-5-yl)-7-methoxy-1-methyl-1H-benzo[d]imidazol-5-yl)methanone]
IC50 ([1]; PAD4 activity comparison, read-out: PAD4 Ammonia assay IC50): 5430 nM | IC50 [1, 3]: > 5000 nM | IC50 [2, 4]: 500 to 5000 nM

CCn1cc(Cn2c(-c3cc4cccc5c4n3CCN5CCCO)nc3cc(C(=O)N4C[C@H](N)C[C@@H](F)C4)cc(OC)c32)cn1 [Example 34, ((3R,5R)-3-amino-5-fluoropiperidin-1-yl)(1-((1-ethyl-1H-pyrazol-4-yl)methyl)-2-(1-(3-hydroxypropyl)-2,3-dihydro-1H-pyrrolo[1,2,3-de]quinoxalin-5-yl)-7-methoxy-1H-benzo[d]imidazol-5-yl)methanone]
IC50 [1, 3]: ≤ 100 nM | IC50 [2, 5]: 500 to 5000 nM
